Assay results published in patent publication US20260242394A1, “USP2 INHIBITORS AND METHODS OF USING THE SAME FOR THE TREATMENT OF DISEASES” (ICAHN SCHOOL OF MEDICINE AT MOUNT SINAI, priority 2023, published 2026).

How the values were obtained:
[1] = tested on: H460 and A375 cells; assay: Cell viability assays in H460 and A375 cells; format: cell-based; conditions: FIGS. 9-11
Procedure: Example 217. (FIG. 9) Screening of selected USP2 inhibitors using cell viability assays. H460 cells were treated with […] of indicated compounds for 48 h, cell viabilities were indicated by the images of cell morphology. Example 218. (FIG. 10) Screening of selected USP2 inhibitors using cell viability assays. A375 cells were treated with indicated concentration of indicated compounds for 48 h, cell viabilities were indicated by the images of cell morphology. Example 219. (FIG. 11) GI50 determination of selected compounds in A375 cells after 48 hours treatment. 0.3 million of H460 cells were seeded in 6-well plate. Next day, cells were treated with 10 uM of drugs for 48 h. DMSO served as negative control. Images of cell morphology were obtained with Olympus IX51 microscope, indicating the cell viability upon treatment.

[2] = tested on: P53 and P21 protein levels in H460 and A375 cells; assay: Immunoblotting of p53 and p21 protein levels in H460 and A375 cells; format: cell-based; conditions: FIGS. 12-13
Procedure: Example 220. (FIG. 12) Screening of selected USP2 inhibitors in H460 cells using immunoblotting experiments. The effect of selected USP2 inhibitors (10 μM, 48 h treatment time) on modulating the protein levels of p53 and p21 in H460 cells. Example 221. (FIG. 13) Screening of selected USP2 inhibitors in A375 cells using immunoblotting experiments. The effect of selected USP2 inhibitors with indicated concentration after indicated treatment time on modulating the protein levels of p53 and p21 in A375 cells. Whole cell extracts were prepared with Flag lysis buffer (50 mM Tris-HCl, pH 8.0, 137 mM NaCl, 1 mM NaF, 1 mM NaVO3, 1% Triton X-100, 0.2% sarkosyl, 0.5 mM DTT, 0.5 mM PMSF and 10% glycerol) containing fresh-added protease inhibitors. For cytosolic and nuclear fractions, the cell pellet was firstly incubated with Harvest buffer (10 mM Hepes (pH 8.0), 50 mM NaCl, 0.5 M sucrose, 0.1 mM EDTA, and 0.25% Triton X-100) containing fresh-added protease inhibitors for 5 min on ice followed by centrifugation @120 g for 10 min. The supernatant was cytosolic fraction. After wash twice with buffer A (10 mM Hepes (pH 8.0), 10 mM KCl, 0.1 mM EDTA, and 0.1 mM EGTA), nuclear pellet was lyzed with BC100 (50 mM Tris-HCl, pH 8.0, 100 mM NaCl, 0.2% Triton X-100, and 10% glycerol) containing fresh-added protease inhibitors for 30 min on ice to get the nuclear fraction. Protein concentration was measured with the protein assay dye reagent (Bio-Rad, Cat #5000006) as manufacturer's user guide. 20-60 μg total proteins were loaded to and separated in SDS-PAGE precast gels, then transferred to nitrocellulose membrane. After incubation with primary antibodies for overnight at 4° C., HRP-conjugated secondary antibodies were used, and western blot signals were detected on autoradiographic films after incubating with ECL substrate.

[3] = In vivo mouse PK studies; conditions: plasma, po, 10 mg/kg
Procedure: Example 222. (FIG. 14) PK results of selected compounds. (a) Plasma concentrations of MS102 and ML346 over 24 h after i.p. injection at 50 mg/kg dose. (b) Plasma concentrations of MS102 over 24 h using different administration routes: […]. (50 mg/kg) by. (c) Plasma concentrations of […]161-180 and XH153-182 over 8 h at 5 mg/kg dose by i.p. injection. (d) Plasma concentrations of XH161-172 over 24 h using different administration routes: […]) Plasma concentrations of XH161-180 over 24 h using different administration routes: […]. (10 mg/kg). Pharmacokinetic studies for ML364, MS102, MS1172, MS1180 and XH153-182 were performed by Sai Life Sciences Limited (India). Experiments were design with 3 mice/time point/compound. Animals were administered intraperitoneally, intravenously as slow bolus injection through tail vein, or through oral route with solution formulation of indicated compound at indicated dose. […] Blood samples (approximately 60 μL) were collected under light isoflurane anesthesia (Surgivet®) from a set of three mice at different time points. Immediately after blood collection, plasma was harvested by centrifugation at 4000 rpm, 10 min at 4° C., and samples were stored at -70±10° C. until bioanalysis. All samples were processed for analysis by protein precipitation method and analyzed with the fit-for-purpose LC-MS/MS method (LLOQ=1.01 ng/mL). […]

[4] = molecular target: T1, USP2 (Homo sapiens, UniProt O75604); assay: biochemical
T1 sequence (O75604 259-605 limits assumed): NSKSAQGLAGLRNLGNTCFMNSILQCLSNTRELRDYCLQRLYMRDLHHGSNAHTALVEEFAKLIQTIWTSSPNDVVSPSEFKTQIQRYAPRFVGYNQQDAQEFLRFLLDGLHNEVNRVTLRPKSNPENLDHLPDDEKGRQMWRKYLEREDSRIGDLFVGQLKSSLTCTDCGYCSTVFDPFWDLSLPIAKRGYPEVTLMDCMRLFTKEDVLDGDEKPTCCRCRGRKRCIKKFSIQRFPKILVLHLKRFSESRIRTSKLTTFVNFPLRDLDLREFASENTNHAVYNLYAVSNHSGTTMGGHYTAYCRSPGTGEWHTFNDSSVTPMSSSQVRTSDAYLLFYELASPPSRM

[5] = tested on: ACE2 and cyclin D1 protein levels in HepG2 cells; assay: Immunoblotting of ACE2 and cyclin D1 protein levels in HepG2 cells

bioavailability [3] [%]	SMILES	antiproliferation effect [1]	tumor suppressors P53 and P21 protein levels [2]	IC50 [4] [µM]	ACE2 protein level [5]
100	CC(C)S(=O)(=O)Nc1cc(F)ccc1C(=O)Nc1nc(-c2ccc(Br)cc2)cs1 [MS1172, N-(4-(4-bromophenyl)thiazol-2-yl)-4-fluoro-2-((1-methylethyl)sulfonamido)benzamide]	antiproliferation effect	elevating	–	–
95	O=C(Nc1nc(-c2ccc(Br)cc2)cs1)c1ccc(F)cc1NS(=O)(=O)C1CCCCC1 [MS1180, N-(4-(4-bromophenyl)thiazol-2-yl)-2-(cyclohexanesulfonamido)-4-fluorobenzamide]	antiproliferation effect	elevating	–	–
–	Cc1ccc(S(=O)(=O)Nc2cc(F)ccc2C(=O)Nc2nccs2)cc1 [XH153-182, 4-fluoro-2-((4-methylphenyl)sulfonamido)-N-(thiazol-2-yl)benzamide]	antiproliferation effect	elevating	–	–
–	Cc1ccc(S(=O)(=O)Nc2ccc(C(F)(F)F)cc2C(=O)Nc2nc(-c3ccc(Br)cc3)cs2)cc1 [XH161-102 (MS102), N-(4-(4-bromophenyl)thiazol-2-yl)-2-((4-methylphenyl)sulfonamido)-5-(trifluoromethyl)benzamide]	–	–	5	dose-dependent reduce
–	O=c1c2ccc(F)cc2nc(C(F)(F)F)n1-c1nc(-c2ccc(Br)cc2)cs1 [XH188-135p1, 3-(4-(4-Bromophenyl)thiazol-2-yl)-7-fluoro-2-(trifluoromethyl)quinazolin-4(3H)-one]	antiproliferation effect	elevating	–	–
–	O=C(Nc1nc(-c2ccc(Br)cc2)cs1)c1ccc(F)cc1NC(=O)C(F)(F)F [XH188-135p2, N-(4-(4-Bromophenyl)thiazol-2-yl)-4-fluoro-2-(2,2,2-trifluoroacetamido)benzamide]	antiproliferation effect	elevating	–	–
–	O=C(Nc1nc(-c2ccc(F)cc2)cs1)c1ccc(F)cc1NC(=O)C(F)(F)F [XH198-68p2, 4-Fluoro-N-(4-(4-fluorophenyl)thiazol-2-yl)-2-(2,2,2-trifluoroacetamido)benzamide]	antiproliferation effect	elevating	–	–
–	O=C(Nc1cc(F)ccc1C(=O)Nc1nc(-c2ccc(F)cc2)cs1)c1ccc(C(F)(F)F)cc1 [XH208-93p2, 4-Fluoro-N-(4-(4-fluorophenyl)thiazol-2-yl)-2-(4-(trifluoromethyl)benzamido)benzamide]	antiproliferation effect	elevating	–	–
